Measured values: US10512271B2, “Method for preventing or treating microbial growth on a manufactured product” (Stellenbosch University, priority 2014, dated 2019)
Square brackets hold non-standard residues; d marks the D form. Peptide text beside a SMILES is read from it. ξ: configuration not given here. Orn = NCCC[C@H](N)C(=O)O; ξP = O=C(O)C1CCCN1

Key:
red blood cells = assay: Haemolytic assay on treated filter disks; format: cell-based; conditions: peptide in solution
Method: Fresh blood from anonymous donors (obtained from the Western Cape Blood transfusion Service, South Africa) was transferred to a sterile Falcon® tube, filled with sterile phosphate buffered saline (PBS: 4.0% (w/v) NaCl, 0.1% (w/v) KC, 0.72% (w/v) Na2HPO4, 0.1% (w/v) KH2PO4, pH 7.2, 5× concentrated stock solution) and centrifuged at 1200×g for 3 minutes. The supernatant was removed and the process repeated. The supernatant was removed once again and remaining blood cells were used for the assays. A clear 96-well microplate was used for this assay. Three disks of each of the matrixes (treated and untreated) were placed into the wells and 4 wells received 10 μL of gramicidin S as positive haemolytic control (1.0 mg/mL). Blood (100 μL at 2% hematocrit) was pipetted into each of the wells, after which the plates were sealed and incubated at 37° C. for 2 hours. […] The absorbance was measured at 595 nm. Percentage haemolysis was calculated by adapting an equation used for dose response assays (Rautenbach, Gerstner, Vlok, Kulenkamff and Westerhoff, 2005, Anal. Biochem. 350:81-90):
A standard curve of tyrocidine doubling dilution (dose response), starting at 20 μg/mL, was used to determine the amount of Tres leading to lysis. Lysis was determined from the linear part of the dose-response curve using the equation: (% haemolysis−2.38)/5.74=[Trc] μg/mL.

[1] = system: Micrococcus luteus NCTC 8340; assay: Antibacterial CFU growth assay, high nutrient environment; format: cell-based
Method: Micrococcus luteus NCTC 8340 was cultured from a freezer stock on Luria Bertani plates (LB: 1% (w/v) NaCl (Merck), 1% (w/v) tryptone (Merck), 0.5% (w/v) yeast extract (Merck), 1.5% (w/v) agar (BioLab) in analytical grade water) and incubated at 37° C. for a period of 48 hours. A colony inoculate in 20 mL of sterile LB broth was incubated at 37° C. until an A620=0.6 was reached. Peptide-treated matrix and a control untreated matrix were transferred to a LB agar plate (high nutrient environment). The M. luteus culture was diluted to A620 of 0.2, further diluted (2000-10000 fold) and transferred to both treated and untreated filters on the LB plate. Plates were incubated for 48 hours at 37° C., after which the matrixes were inspected for the number of colony forming units (CFU).

[2] = Wettability of treated filters (water drop size and time to absorption); format: physicochemical
Method: The wettability of untreated and GS- and Trc-treated filters were determined to ascertain the effect the peptides have on the hydrophobicity of the filters. Water containing blue food colouring (50 μL) was pipetted onto untreated and treated filters and the filters were monitored for the drop size and time to complete absorption.
The wettability, an indicator of hydrophilic/hydrophobic character, could possibly be altered by the adsorption of peptide, and this change in character would be an indication of the orientation in which in the peptide adsorbed to the various filters. The wettability of untreated and treated filters was determined (Table 3) and the untreated filters were rated in terms of hydrophobicity based on the time it took for a water droplet to completely absorb into the filter. […] Trc treatment made CA much more hydrophilic, while GS also lead to an increase in hydrophilicity, indicating the exposure of the polar amino acids to the surface. Trc made the HAWP filters more hydrophobic, whereas the gramicidin S made the filter more hydrophilic.

[3] = Peptide adsorbed to filters, change in absorbance (A230) of incubation solution
M. luteus = assay: Cell viability (vitality) assay, low nutrient environment, high cell count; format: cell-based, Micrococcus luteus
Method: Treated and untreated matrixes (filters, membrane and films) were punched into 5 mm disks and triplicate disks were transferred to black […] microplates. A mid-log phase M. luteus culture was diluted with LB media to A620 of 0.20 (1.3×10^7 CFU/mL). Each well received […] of the diluted culture ([…]) on top of the 5 mm disk. The plate was incubated at 37° C. for one hour after which 90 μL phosphate-buffered saline (PBS) and 10 μL CellTiter-Blue® Reagent was added to each well. The plate was again incubated for 2 hours at 37° C. After the […] incubation in the low nutrient environment, the fluorescence was determined at an excitation wavelength of 530 nm and emission wavelength of 590 nm. The fluorescence reading was taken with a Varioskan™ Multimode reader from Thermo Scientific™ controlled by Skanit Software 2.4.1 from Thermo Electron. Each plate was shaken for 5 seconds before measurements were taken at 25° C.
Cell viability was calculated using the equation: […]
Different filters, surfaces and nanofibers, treated with Trc extract or GS, were assessed for the more direct short-term killing of M. luteus (sterilisation) using a low nutrient environment, high cell count and the Alamar Blue vitality assay to assess bacterial metabolism. […] This could be due to the limited spreading of the 5 μL culture on the filter, limiting the contact of the bacteria with the rest of the Trc-coated filter, and thus this assay could have underestimated the overall filter activity.

Gram-negative organisms = assay: Activity of treated CL filters against Gram-negative organisms; format: cell-based
[4] = Polycarbonate (PC, 0.45 μm pores)
[5] = Polyvinylidene difluoride (GVLP, 0.22 μm pores)
[6] = Polyvinylidene difluoride (HVLP, 0.45 μm pores)

CC(C)C[C@@H]1NC(=O)[C@H](CCCN)NC(=O)[C@H](C(C)C)NC(=O)C2CCCN2C(=O)[C@@H](Cc2ccccc2)NC(=O)[C@H](CC(C)C)NC(=O)[C@H](CCCN)NC(=O)[C@H](C(C)C)NC(=O)C2CCCN2C(=O)[C@@H](Cc2ccccc2)NC1=O (some centres unmarked) [GS, Cyclo-(VOLfPVOLfP)] (cyclo(L[dF][ξP]V[Orn]L[dF][ξP]V[Orn]))
concentration at which lysis of red blood cells starts (red blood cells): > 10000 ng/mL
protection of treated filters against overt colonisation by M. luteus ([1]; 48 hour growth assay, low cell count, high nutrient environment, summary of Table 4): only protected CL, HDC and HVLP against overt colonisation
M. luteus, detected CFU/cm^2 after 48 h in nutrient rich environment ([1]; Cellulose (CL)): 0 CFU/cm^2
M. luteus, detected CFU/cm^2 after 48 h in nutrient rich environment ([1]; Cellulose Acetate (CA)): 3 ± 1 CFU/cm^2
M. luteus, detected CFU/cm^2 after 48 h in nutrient rich environment ([1]; High density cellulose (HDC)): 0 CFU/cm^2
M. luteus, detected CFU/cm^2 after 48 h in nutrient rich environment ([1]; Mixed nitrocellulose/cellulose acetate esters (GSWP 0.22 μm)): 3 ± 1 CFU/cm^2
M. luteus, detected CFU/cm^2 after 48 h in nutrient rich environment ([1]; Mixed nitrocellulose/cellulose acetate esters (HAWP, 0.45 μm)): 4 ± 1 CFU/cm^2
M. luteus, detected CFU/cm^2 after 48 h in nutrient rich environment ([1]; Polycarbonate (PC, 0.45 um)): 4 ± 1 CFU/cm^2
M. luteus, detected CFU/cm^2 after 48 h in nutrient rich environment ([1]; Polyvinylidene difluoride (GVHP, 0.22 μm)): 3 ± 1 CFU/cm^2
M. luteus, detected CFU/cm^2 after 48 h in nutrient rich environment ([1]; Polyvinylidene difluoride (HVLP, 0.45 μm)): 0 CFU/cm^2
Drop Diameter ([2]; Cellulose (CL, No 1)): >1 cm
Time until absorbed ([2]; Cellulose (CL, No 1)): <0.167 min
induced change in hydrophobicity ([2]; Cellulose (CL, No 1)): no change
Drop Diameter ([2]; Cellulose Acetate (CA)): 0.85 cm
Time until absorbed ([2]; Cellulose Acetate (CA)): 5.01 min
induced change in hydrophobicity ([2]; Cellulose Acetate (CA)): decrease
Drop Diameter ([2]; GSWP, 0.22 μm pores): 0.81 cm
Time until absorbed ([2]; GSWP, 0.22 μm pores): 3.55 min
induced change in hydrophobicity ([2]; GSWP, 0.22 μm pores): increase
Drop Diameter ([2]; HAWP, 0.45 μm pores): 0.96 cm
induced change in hydrophobicity ([2]; HAWP, 0.45 μm pores): slight
Time until absorbed ([2]; HAWP, 0.45 μm pores, 50 μL water drop): 2.20 min
Drop Diameter ([2]; High density cellulose (HDC)): 0.94 cm
Time until absorbed ([2]; High density cellulose (HDC)): >30 min
induced change in hydrophobicity ([2]; High density cellulose (HDC)): slight
Drop Diameter [2, 4]: 0.73 cm
Time until absorbed [2, 4]: >30 min
induced change in hydrophobicity [2, 4]: no change
Drop Diameter [2, 5]: 1.00 cm
Time until absorbed [2, 5]: 17.25 min
induced change in hydrophobicity [2, 5]: increase
Drop Diameter [2, 6]: 0.72 cm
Time until absorbed [2, 6]: 9.20 min
induced change in hydrophobicity [2, 6]: increase
peptide adsorbed, Absorbance (A230) ([3]; GVHP (0.22 μm) filter): 5.3±1.1 μg/cm^2
peptide adsorbed, Absorbance (A230) ([3]; HVLP (0.45 μm) filter): 2.8±0.6 μg/cm^2
peptide adsorbed, Absorbance (A230) ([3]; Polycarbonate filter): 1.2±2.2 μg/cm^2
short-term killing of M. luteus (sterilisation) (M. luteus; HDC and CL filters, FIG. 3A): Good protection
short-term killing of M. luteus (sterilisation) (M. luteus; HVLP filter, FIG. 3A): good protection
short-term killing of M. luteus (sterilisation) (M. luteus; all the other filters except PC, compared with growth assay): improved activity
overt activity against Gram-negative organisms (Gram-negative organisms): not demonstrated
